Entries after “also recorded” stand apart in the source; their conditions may differ.
Legend:
Format in all cases: biochemical
human cardiac cytosol [1] = assay: Reconstitution of DOX metabolism and DOXol formation, plus or minus taxanes, in human cardiac cytosol; conditions: for stimulation of DOXol formation (in words): [4Fe-4S]-depleted cytosol, DOX 25 μM, taxanes 1-50 μM, 4 h, FIG. 3; for doxorubicinol formation from DOX: taxane 1 μM, DOX without taxane 0.46±0.04, n=3, P<0.05
Method: (§1) Human myocardium is obtained from patients undergoing aorto-coronary bypass grafting. All samples were routinely disposed of by the surgeons from the lateral aspect of excluded right atrium during cannulation procedures for cardio-pulmonary by-pass. After storage at −80° C., pools of 15-20 samples are processed for cytosol preparation by sequential homogenization, ultracentrifugation and overnight 65% ammonium sulfate precipitation of 105,000 g supernatants. Next, cytosol is dialyzed against 100 mM Tris HCl-40 mM KCl, pH 8.9, diluted to 3 mg protein/ml with the same buffer, and incubated for 15 minutes at room temperature with 100 mM dithiothreitol to promote non-denaturing disassembly of the [4Fe-4S] cluster of cytoplasmic aconitase. This treatment is necessary as reactions of DOXol with [4Fe-4S] clusters would convert this metabolite back to DOX. Sizable amounts of DOXol would therefore go undetected if they reacted with [4Fe-4S] clusters prior to their assay. Unreacted dithiothreitol was eventually removed by sequential gel filtration on (1.5×10 cm) Sepharose 6B columns, protein reprecipitation with 65% ammonium sulfate, and extensive dialysis against 0.3 M NaCl, pH 7.0. Doxorubicin metabolism was reconstituted in 0.5 ml incubations containing cytosol (0.15 mg protein), NADPH (100 μM) and DOX (25 μM), in 0.3 M NaCl (pH 7.0) 37° C. Where indicated ethanol-dissolved taxanes (1-50 μM) were included. Aliquots of taxane-free ethanol (5 μl) were included as appropriate to adjust the final volume to 10 μl in all incubations. After 4 h DOX and DOXol were extracted with 2 ml of CHCl3/CH3OH (1:1) and separated by previously validated two-dimensional TLC on (20×20 cm) […] F524 Silica Gel Plates, using CHCl3/CH3OH/CH3COOH/H2O (80:20:14:6) as mobile phase in either dimension. Doxorubicinol was identified by cochromatography with (S)-DOXol from Streptomyces peucetius or (S) (R)-DOXol purified after NaBH4 reduction of DOX. Where indicated incubations were prepared by replacing DOX with DOX aglycone and by measuring formation of DOXol aglycone. The latter was separated from DOX aglycone by using CHCl3/CH3OH/CH3COOH (100:2:5) and CH3COOC2H5—CH3CH2OH—CH3COOH—H2O (80:10:5:5) in the first and second dimension, respectively. DOX aglycone was purified after thermoacid hydrolysis of DOX.

human cardiac cytosol [2] = assay: Conversion of DOX aglycone into DOXol aglycone, plus or minus taxanes, in human cardiac cytosol; conditions: for stimulation of conversion of DOX aglycone into DOXol aglycone (in words): human cardiac cytosol, FIG. 4; for doxorubicinolone formation from doxorubicinone: taxane 1 μM, without taxane 0.8±0.1, n=3, P<0.05
Method: as §1

human cardiac microsomes [3] = assay: NADPH oxidation by deoxycholate-solubilized human heart microsomes incubated with DOX, plus or minus taxanes; conditions: 10 μM DOX, 1-10 μM taxane; FIG. 5
Method: (§2) 105,000 g pellets from human myocardium homogenates are solubilized with deoxycolate and reconstituted at the final concentration of 0.025 mg prot/ml with 10 μM DOX, 1-10 μM taxane, 0.1 mM NADPH, in 0.3 M NaCl, pH 7.0, 37° C.
(§3) Electron flow from NADPH cytochrome P-450 reductase to the quinone moiety of DOX is detected by monitoring NADPH oxidation. Redox coupling of the semiquinone with oxygen is detected by monitoring formation of the superoxide anion radical with the superoxide dismutase-inhibitable reduction of cytochrome c (25 μM). These assays are performed in a Hewlett Packard 8453A UV/VIS/NIR spectrometer equipped with computer-assisted corrections for scatter and turbidity.

human cardiac microsomes [4] = assay: Superoxide anion formation (SOD-inhibitable cytochrome c reduction) by deoxycholate-solubilized human heart microsomes with DOX, plus or minus taxanes; conditions: for increase of DOX-dependent superoxide anion formation (in words): 10 μM taxane with DOX
Method: as §2, §3

| Structure (SMILES) | stimulation of DOXol formation (in words) (human cardiac cytosol [1]) | stimulation of conversion of DOX aglycone into DOXol aglycone (in words) (human cardiac cytosol [2]) | stimulation of NADPH oxidation in the presence of DOX (in words) (human cardiac microsomes [3]) | increase of DOX-dependent superoxide anion formation (in words) (human cardiac microsomes [4]; FIG. 6) | doxorubicinol formation from DOX (human cardiac cytosol [1]) [nmol/mg prot./4h] | doxorubicinolone formation from doxorubicinone (human cardiac cytosol [2]) [nmol/mg prot./4h] | effect of DOX on superoxide anion formation (in words) (human cardiac microsomes [4]; DOX without taxane, FIG. 6) | generation of superoxide anion radicals in microsomal fractions (human cardiac microsomes [4]; taxane 10 μM, DOX without taxane 1.6±0.1, n=4-10, P<0.05) [nmol/mg prot./min] |
| --- | --- | --- | --- | --- | --- | --- | --- | --- |
| COC(=O)O[C@@]12CO[C@@H]1C[C@H](O)[C@@]1(C)C(=O)[C@H](OC(C)=O)C3=C(C)[C@@H](OC(=O)[C@H](O)[C@@H](NC(=O)c4ccccc4)c4ccccc4)C[C@@](O)([C@@H](OC(=O)c4ccccc4)[C@H]21)C3(C)C [4-desacetyl-4-methylcarbonate taxol] | did not stimulate; also recorded: did not increase | failed to stimulate; also recorded: did not increase; also recorded: has not been found to stimulate | stimulated this oxidation only at the highest levels tested; also recorded: stimulated NADPH oxidation only at the highest concentration tested, although this was not statistically significant | did not increase; also recorded: did not afford any significant stimulation | – | – | – | – |
| CC(=O)O[C@@]12CO[C@@H]1C[C@H](O)[C@@]1(C)C(=O)[C@H](O)C3=C(C)[C@@H](OC(=O)[C@H](O)[C@@H](NC(=O)OC(C)(C)C)c4ccccc4)C[C@@](O)([C@@H](OC(=O)c4ccccc4)[C@H]21)C3(C)C [DCT, docetaxel] | stimulate | able to stimulate | able to stimulate | significant increase | 1.2±0.2 | 1.3±0.2 | – | – |
| COc1cccc2c1C(=O)c1c(O)c3c(c(O)c1C2=O)C[C@@](O)(C(=O)CO)C[C@@H]3O[C@H]1C[C@H](N)[C@H](O)[C@H](C)O1 [DOX, doxorubicin] | – | – | – | – | – | – | enhances; also recorded: able to enhance | – |
| CC(=O)O[C@H]1C(=O)[C@@]2(C)[C@H]([C@H](OC(=O)c3ccccc3)[C@]3(O)C[C@H](OC(=O)[C@H](O)[C@@H](NC(=O)c4ccccc4)c4ccccc4)C(C)=C1C3(C)C)[C@]1(OC(C)=O)CO[C@@H]1C[C@@H]2O [PTX, paclitaxel] | stimulate | able to stimulate | able to stimulate | significant increase | 1.1±0.2 | 1.4±0.2 | – | 2.2±0.2 |
